Source: patent US4569791A, “Anti-diabetic compounds” (Eli Lilly and Company, priority 1984, dated 1986)

Legend:
[1] = system: insulin receptor on isolated fat cells; assay: Isolated Fat Cell Radioreceptor Assay (displacement of 125I-labeled insulin); format: binding; conditions: for Relative Potency: isolated fat cell radioreceptor assay, human proinsulin = 1; for ED50: isolated fat cells, 125I-labeled insulin 1-2×10^-11 M, 15° C., two hours
Experimental: B. Isolated Fat Cell Radioreceptor Assay
Isolated fat cells were prepared by a modification [Huber, C. T., Solomon, S. S., and Duckworth, W. C., J. Clin. Invest. […] All incubations were in Krebs-Ringer-Hepes (KRH) buffer, pH 7.4, with 4% bovine serum albumin (BSA) in a total volume of 2 ml. […] At selected times, triplicate 300 μl aliquots were removed and added to microfuge tubes containing 100 μl dinonyl phthalate [see Gliemann, J., Osterlind, K., Vinten, J., and Gammeltoft, S., Biochem. Biophys. Acta. […] After centrifugation for one minute in a microfuge, the tubes were cut through the oil layer, and the cell pellet was counted using a gamma counter to determine binding.

[2] = system: isolated rat adipocytes; assay: Biological Activity in Isolated Rat Adipocytes (incorporation of 2-3H-glucose in total fat cell lipid); format: cell-based; conditions: for Relative Potency: biological activity in rat adipocytes, human proinsulin = 1; for ED50: rat adipocytes, 2-3H-glucose incorporation into lipid, 37° for 1 hr, mean ±SEM
Experimental: C. Biological Activity in Isolated Rat Adipocytes
Adipocytes were prepared from epididymal fat pads by a modification (Huber, supra) of the collagenase digestion procedure of Rodbell, supra. Krebs-Ringer-HEPES (KRH) buffer, pH 7.4, containing 4% bovine serum albumin and 0.55 mM glucose was used in all isolation and incubation steps.
Biological activity was assessed according to the method of Moody, A. J., Stan, M. A., Stan, M., and Glieman, J., Horm. Metab. Res. 6, 12-16 (1974) by monitoring the incorporation of 2-^3 H-glucose in total fat cell lipid. […] Radioactivity was determined in a Searle Isocap 300 liquid scintillation counter at an efficiency of approximately 30%. Blanks were prepared in which the scintillation fluid was added to the vials prior to the addition of cells. The average counts obtained from these vials were subtracted from those observed in all other samples.
Competitive binding curves and biological activity dose-response curves were analyzed using the PREFIT and ALLFIT programs [DeLean, A., Munson, P. J., and Rodbard, D., Am. J. Physiol. 235, E97-E102 (1978)] based on a four-parameter logistic model. These analyses indicated the concentration of insulin or proinsulin necessary to produce a half-maximal response, as well as the maximal and minimal values. All values are presented as the mean ±SEM.

[3] = system: insulin receptor on IM-9 cells; assay: IM-9 Radioreceptor Assay (displacement of 125I-insulin); format: binding, human; conditions: for ED50: IM-9 cells, 125I-insulin 1-2×10^-11 M, 15° C., two hours; for Relative Potency: IM-9 radioreceptor assay, human proinsulin = 1
Experimental: A. IM-9 Radioreceptor Assay
IM-9 cells were grown in RPMI media containing 2 mM glutamine, 25 mM HEPES, and 10% fetal bovine serum. […] Incubations were carried out in 1.5 ml microfuge tubes at 15° C. for two hours. Concentrations of stock solutions containing insulin, proinsulin, or compound of this invention used in the binding studies were established by amino acid analysis and by their absorbance at 276 nm. The cells were resuspended during the assay every 30 minutes by inverting the tubes several times. At the end of the incubation, the tubes were centrifuged for one minute in a Beckman Microfuge, the supernant was aspirated, the tips of the tubes containing the cell pellet were excised, and the radioactivity was measured.

Row | Substance | Relative Potency [1] | ED50 [1] | Relative Potency [2] | ED50 [2] | ED50 [3] | Relative Potency [3]
1 | (32-33 split)HPI [(32-33 split) HPI] | 5 | 5.29 ± 1.8 × 10^-8 M | 5 | 2.56 ± 0.2 × 10^-9 M | 5.92 ± 0.7 × 10^-9 M | 5
2 | Human Proinsulin [reference compound] | 1 | 2.55 ± 0.6 × 10^-7 M | 1 | 1.24 ± 0.2 × 10^-8 M | 2.97 ± 0.2 × 10^-8 M | 1
3 | des(31,32)HPI [des (31,32) HPI] | 9 | 2.85 ± 0.1 × 10^-8 M | 5 | 2.68 ± 0.5 × 10^-9 M | 5.60 ± 0.3 × 10^-9 M | 5
4 | Human Insulin [reference compound] | – | – | – | 5.32 ± 0.7 × 10^-11 M | – | –
